Experimental data from US20100029542A1, “PROTEIN STERILISATION BY RADIATION AND ADDITION OF A STABILISING COMPOSITION” (priority 2006, published 2010).
Like-named read-outs stand apart in the source and are kept apart here. Where a SMILES comes first, the peptide text is derived from it.

Key:
catalase = molecular target: T1, catalase (Bos taurus, UniProt P00432); test: Activity recovery of catalase in dry formulations following gamma irradiation; assay type: physicochemical, bovine; conditions: for Enzyme activity remaining after gamma-irradiation: catalase 100 μg mL^−1 prior to drying, dry, 25-40 kGy
T1 construct: Catalase (from bovine liver, Sigma C9322, 2380 U /mg solid); purchased Sigma C9322; host or cells: bovine liver
T1 sequence (P00432 2-527 limits assumed): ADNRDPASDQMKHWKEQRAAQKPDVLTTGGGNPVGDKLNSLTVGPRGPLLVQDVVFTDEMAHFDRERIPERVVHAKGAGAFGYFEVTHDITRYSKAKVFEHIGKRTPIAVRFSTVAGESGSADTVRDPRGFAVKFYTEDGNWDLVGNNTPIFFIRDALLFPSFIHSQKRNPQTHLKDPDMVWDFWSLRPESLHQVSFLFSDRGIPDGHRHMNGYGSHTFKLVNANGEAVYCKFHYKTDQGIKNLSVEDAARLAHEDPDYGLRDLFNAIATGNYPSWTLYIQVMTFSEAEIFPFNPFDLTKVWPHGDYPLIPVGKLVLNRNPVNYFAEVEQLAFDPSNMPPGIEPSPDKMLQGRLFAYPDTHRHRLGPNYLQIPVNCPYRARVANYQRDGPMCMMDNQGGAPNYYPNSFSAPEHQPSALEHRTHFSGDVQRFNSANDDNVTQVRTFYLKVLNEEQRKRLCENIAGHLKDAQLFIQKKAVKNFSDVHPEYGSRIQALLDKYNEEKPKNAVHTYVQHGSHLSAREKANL
Description: (§1) In each example, an aqueous solution of a protein was prepared with selected additives in an Eppendorf tube or in a glass vial. Water was removed from the formulation by drying under a stream of nitrogen at 30° C. and subsequent incubation at atmospheric pressure in the presence of a dessicant. The Eppendorf tubes or the glass vials were sealed and delivered to an industrial sterilisation service for gamma irradiation, with a dose range typical for sterile medical products. The gamma-irradiated samples were reconstituted on their return and analysed for protein activity or structural integrity. The results were compared with those achieved using control (i.e. non-irradiated) samples.
(§2) The dry samples (approx. 20 μg in an Eppendorf tube) were gamma-irradiated by an industry-standard commercial sterilising service provided by Isotron PLC (Swindon, Wilts, UK), using a Cobalt 60 gamma source at ambient temperature. The radiation dose was in the range of 25-40 kGy.
(§3) The original solutions (i.e. solutions prior to drying) contained 100 μg mL^−1 of catalase and typically the total of 100 mM of protective compounds (i.e. 100 mM in case of a single compound, 50 mM+50 mM in case of two compounds, 33.3 mM+33.3 mM+33.3 mM in the case of three compounds etc.). The solutions were dried and gamma irradiated. Following the gamma irradiation, the samples, both pre- and post-gamma irradiated, were assayed for […] activity. This was performed according to the following procedure:
Water was added to the sample to achieve 100 μg mL^−1 of catalase. 100 μL of the solution was added to a mixture of 18 mL of PBS and 2 mL of hydrogen peroxide (30 mM in water) in a 125 mL polypropylene pot and mixed. The resulting mixture was incubated at room temperature precisely for 30 min. In the meantime, the following reagents were mixed in a plastic cuvette for spectrophotometric measurements: • 2.73 mL of citrate/phosphate buffer (0.1 M, pH 5.0) • 100 μL of tetramethylbenzidine (TMB) (3 mg/mL, dissolved in dimethyl sulphoxide (DMSO)) • 100 μL of lactoperoxidase
Following the 30 min incubation period, 70 μL of the catalase containing mixture was added to the cuvette and absorbance was read in approximately 30 s. The results were expressed as percentage recovery, by reference to the absorbance measured in the fresh samples (i.e. prior to incubation at increased temperature).

[1] = cited from earlier work; for Rate constant k: Table 1, singlet oxygen scavengers, measured in specified solvents
glucose oxidase = molecular target: T2, glucose oxidase (Aspergillus niger, UniProt P13006); test: Activity recovery of glucose oxidase in dry formulations following gamma irradiation; assay type: physicochemical; conditions: glucose oxidase 350 μg mL^−1 prior to drying, dry, 25-40 kGy
T2 construct: purchased Biocatalysts G575P
Description: as §1, §2
as §3, with “contained 350” for “contained 100”, “of glucose oxidase” for “of catalase”
Water was added to the sample to achieve 350 μg mL^−1 of glucose oxidase. 50 μL of the solution was added to 50 mL of deionised water. The following solutions were then added: • 10 mL of reagent mix (5 parts of 0.1 M sodium phosphate, pH 6+4 parts 2% w/w starch+1 part of 1 mg/mL lactoperoxidase enzyme); • 5 mL of 100 mM potassium iodide; and • 5 mL of 20% w/w glucose solution.
These were mixed together quickly. Time=0 was counted from the addition of the glucose. After 5 min, 1 ml of 5 M aq. hydrochloric acid was added to stop the reaction. The absorbance was then read at 630 nm using a Unicam UV-visible spectrophotometer (Type: Helios gamma). If the colour intensity was too great to allow an accurate reading, the sample was diluted with a defined volume of deionised water to bring the colour back on scale. The results were expressed as percentage recovery, by reference to the absorbance measured in the pre-gamma irradiation samples.

human growth hormone = molecular target: T3, human growth hormone (Homo sapiens, UniProt P01241); test: Recovery of structural integrity of human growth hormone in dry formulations following gamma irradiation (HPLC); assay type: physicochemical; conditions: structural integrity by HPLC, human growth hormone 2.5 mg mL^−1 prior to drying, 25-40 kGy
T3 construct: purchased National Institute of Biological Standards and Control; further samples on prescription from a GP surgery
Description: as §1, §2
Mobile phase was prepared by mixing 71 parts (by volume) of a solution of TRIS (0.05 M, in water adjusted with hydrochloric acid to a pH of 7.5) and 29 parts (by volume) of n-propylalcohol. The mobile phase was filtered prior to its use. The liquid chromatograph (Agilent 1100 series) was equipped with a 214 nm detector and a 4.6×250 mm column (Phenomenex 00G-4167-E0) packed with butylsilyl silica gel with a granulometry of 5 μm and a porosity of 30 nm, maintained at 45° C. The flow rate was maintained at 0.5 mL min^−1. 15 μL of aqueous samples of human growth hormone (typically 1-2.5 mg mL^−1) were injected. Results were expressed as % of peak area corresponding to the gamma irradiated sample with respect to that measured in non-irradiated sample.

Sandostatin = test: Recovery of structural integrity of Sandostatin in dry formulations following gamma irradiation (HPLC); assay type: physicochemical; conditions: structural integrity by HPLC, excipient:Sandostatin weight ratio 10:1, 25-40 kGy
Description: as §1, §2
Mobile phase A was 0.1 M triethylamine adjusted to pH 2.3 with phosphoric acid. Mobile phase B was acetonitrile. The mobile phases were filtered prior to their use. The following linear gradient was used: time 0: 90% A+10% B; time 35 min: 60% A+40% B. The liquid chromatograph (Agilent 1100 series) was equipped with a 214 nm detector, guard column and a 4.6×150 mm C18 column with a granulometry of 5 μm and a porosity of 30 nm, maintained at ambient temperature. The flow rate was maintained at 1.0 mL min^−1. Injection volume was 50 μL (typically sandostatin at 200 μg mL^−1). Results were expressed as % of main peak area (i.e. area of the peak corresponding to intact sandostatin measured in the gamma irradiated sample with respect to that measured in non-irradiated sample of identical composition). A chromatogram of a standard solution of sandostatin was recorded after every 12 samples to ensure that no drift in the position of the major peak had occurred. The control measurements ruled out any ambiguity in interpreting the chromatograms.

[2] = Table 6, singlet oxygen scavengers, ambient temperature
[3] = Table 5, singlet oxygen scavengers, ambient temperature
[4] = Table 7, singlet oxygen scavengers
[5] = Table 8, singlet oxygen scavengers
[6] = Table 10, superoxide scavengers
[7] = Table 11, superoxide scavengers
[8] = Table 12, superoxide scavengers
[9] = Table 3, prior-art antioxidants, ambient temperature, vs non-irradiated
[10] = Table 4, prior-art antioxidants, ambient temperature

T3 sequence (P01241 27-217): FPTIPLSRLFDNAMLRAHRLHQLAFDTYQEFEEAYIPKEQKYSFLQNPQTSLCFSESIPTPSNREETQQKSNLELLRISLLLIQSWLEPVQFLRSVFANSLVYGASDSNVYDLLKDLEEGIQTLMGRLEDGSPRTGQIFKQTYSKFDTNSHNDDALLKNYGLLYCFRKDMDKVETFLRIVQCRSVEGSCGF
T2 sequence (P13006 17-605): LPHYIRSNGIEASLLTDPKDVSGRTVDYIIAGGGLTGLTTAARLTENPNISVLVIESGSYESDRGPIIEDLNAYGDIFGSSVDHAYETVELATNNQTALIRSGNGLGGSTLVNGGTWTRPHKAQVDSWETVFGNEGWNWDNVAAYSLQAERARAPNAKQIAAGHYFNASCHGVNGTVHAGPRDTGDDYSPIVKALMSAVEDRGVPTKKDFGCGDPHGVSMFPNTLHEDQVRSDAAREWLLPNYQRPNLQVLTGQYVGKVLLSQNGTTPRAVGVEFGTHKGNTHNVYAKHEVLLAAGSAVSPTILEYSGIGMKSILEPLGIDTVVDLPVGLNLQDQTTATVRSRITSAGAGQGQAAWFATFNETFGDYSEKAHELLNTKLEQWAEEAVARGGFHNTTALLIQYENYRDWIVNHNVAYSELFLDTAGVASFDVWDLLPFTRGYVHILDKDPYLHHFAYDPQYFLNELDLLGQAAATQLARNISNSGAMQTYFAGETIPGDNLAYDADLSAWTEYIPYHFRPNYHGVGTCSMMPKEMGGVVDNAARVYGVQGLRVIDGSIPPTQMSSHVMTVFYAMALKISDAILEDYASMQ

## N[C@@H](Cc1c[nH]cn1)C(=O)O [Histidine]
catalase; [2]
  Enzyme activity remaining after gamma-irradiation: 18.3%
[1]
  Rate constant k: k = 4.6 × 10^7 L mol^−1 s^−1
[1]; Table 5
  Rate of reaction with singlet oxygen: 4.6e+07 M⁻¹ s⁻¹
[1]; Table 6
  Rate of reaction with singlet oxygen: 4.6e+07 M⁻¹ s⁻¹
[1]; Table 7
  Rate of reaction with singlet oxygen: 4.6e+07 M⁻¹ s⁻¹
[1]; Table 8
  Rate of reaction with singlet oxygen: 4.6e+07 M⁻¹ s⁻¹
Glucose oxidase; [3]
  Enzyme activity remaining after gamma-irradiation: 57.9%
Human growth hormone; [4]
  Structural integrity remaining after gamma-irradiation (HPLC): 55.5%
Sandostatin; [5]
  Enzyme activity remaining after gamma-irradiation: 85.0%

## OC[C@@H](O)[C@@H](O)[C@H](O)[C@H](O)CO [Mannitol]
catalase; [6]
  Enzyme activity remaining after gamma-irradiation: 36.3%
Glucose oxidase; Table 9, superoxide scavengers
  Enzyme activity remaining after gamma-irradiation: 17.2%
Human growth hormone; [7]
  Structural integrity remaining after gamma-irradiation (HPLC): 28.3%
Sandostatin; [8]
  Enzyme activity remaining after gamma-irradiation: 72.6%

## [Cu+2] [Copper(II) ion]
[1]
  Rate constant k: k = 6.4 × 10^7 L mol^−1 s^−1

## C[C@H](N)C(=O)O [Alanine]
catalase; [2]
  Enzyme activity remaining after gamma-irradiation: 8.8%
[1]
  Rate constant k: k = 3.0 × 10^7 L mol^−1 s^−1
[1]; Table 5
  Rate of reaction with singlet oxygen: 3e+07 M⁻¹ s⁻¹
[1]; Table 6
  Rate of reaction with singlet oxygen: 3e+07 M⁻¹ s⁻¹
Glucose oxidase; [3]
  Enzyme activity remaining after gamma-irradiation: 15.3%

## N[C@@H](Cc1c[nH]c2ccccc12)C(=O)O [Tryptophan]
catalase; [2]
  Enzyme activity remaining after gamma-irradiation: 9.1%
[1]
  Rate constant k: k = 1.3 × 10^7 L mol^−1 s^−1
[1]; Table 5
  Rate of reaction with singlet oxygen: 1.3e+07 M⁻¹ s⁻¹
[1]; Table 6
  Rate of reaction with singlet oxygen: 1.3e+07 M⁻¹ s⁻¹
[1]; Table 7
  Rate of reaction with singlet oxygen: 1.3e+07 M⁻¹ s⁻¹
[1]; Table 8
  Rate of reaction with singlet oxygen: 1.3e+07 M⁻¹ s⁻¹
Glucose oxidase; [3]
  Enzyme activity remaining after gamma-irradiation: 37.0%
Human growth hormone; [4]
  Structural integrity remaining after gamma-irradiation (HPLC): 54.6%
Sandostatin; [5]
  Enzyme activity remaining after gamma-irradiation: 82.2%

## O=C(O)CC(O)C(=O)O (stereo not drawn) [Malate]
catalase; [6]
  Enzyme activity remaining after gamma-irradiation: 40.9%
Glucose oxidase; Table 9, superoxide scavengers
  Enzyme activity remaining after gamma-irradiation: 40.7%
Human growth hormone; [7]
  Structural integrity remaining after gamma-irradiation (HPLC): 52.1%
Sandostatin; [8]
  Enzyme activity remaining after gamma-irradiation: 87.7%

## O=C(O)CC(O)(CC(=O)O)C(=O)O [Citrate]
catalase; [6]
  Enzyme activity remaining after gamma-irradiation: 39.5%
Glucose oxidase; Table 9, superoxide scavengers
  Enzyme activity remaining after gamma-irradiation: 32.0%
Human growth hormone; [7]
  Structural integrity remaining after gamma-irradiation (HPLC): 45.6%
Sandostatin; [8]
  Enzyme activity remaining after gamma-irradiation: 91.8%

## CC12CCC(CC1)C(C)(C)O2 [Eucaliptol]
catalase; as excipient in the formulation
  Compatibility of the compound with catalase: inhibit catalase
Glucose oxidase; Table 13, ozone scavengers
  Enzyme activity remaining after gamma-irradiation: 17.5%

## Silymarine
Glucose oxidase; [9]
  Enzyme activity remaining after gamma-irradiation: 46.3%
Human growth hormone; [10]
  Structural integrity remaining after gamma-irradiation (HPLC): 63.0%

## N[C@@H](CS)C(=O)O [Cysteine anion]
[1]
  Rate constant k: k = 1.5 × 10^8 L mol^−1 s^−1

## Cc1c(C)c2c(c(C)c1O)CCC(C)(C(=O)O)O2 (stereo not drawn) [Trolox]
Glucose oxidase; [9]
  Enzyme activity remaining after gamma-irradiation: 45.9%
Human growth hormone; [10]
  Structural integrity remaining after gamma-irradiation (HPLC): 49.6%

## Oc1nc(O)c2nc(O)[nH]c2n1 [Urate]
Glucose oxidase; [9]
  Enzyme activity remaining after gamma-irradiation: 32.6%
Human growth hormone; [10]
  Structural integrity remaining after gamma-irradiation (HPLC): 61.5%

## NCC(=O)NCC(=O)O [Glycylglycine] (H-Gly-Gly-OH)
Glucose oxidase; [9]
  Enzyme activity remaining after gamma-irradiation: 20.1%
Human growth hormone; [10]
  Structural integrity remaining after gamma-irradiation (HPLC): 47.2%

## NC(=O)C1=CN([C@@H]2O[C@H](COP(=O)(O)OP(=O)(O)OC[C@H]3O[C@@H](n4cnc5c(N)ncnc54)[C@H](O)[C@@H]3O)[C@@H](O)[C@H]2O)C=CC1 [NADH]
[1]
  Rate constant k: k = 2 × 10^7 L mol^−1 s^−1

## [N-]=[N+]=[N-] [Azide anion]
[1]
  Rate constant k: k = 4.5 × 10^8 L mol^−1 s^−1

## CC(=O)CCCCn1c(=O)c2c(ncn2C)n(C)c1=O [Pentoxyfylline, reference compound]
catalase; Table 14, ozone scavenger
  Enzyme activity remaining after gamma-irradiation: 77.0%
Glucose oxidase; Table 13, ozone scavengers
  Enzyme activity remaining after gamma-irradiation: 36.2%
Human growth hormone; Table 15, ozone scavenger
  Structural integrity remaining after gamma-irradiation (HPLC): 46.0%

## [Ni+2] [Nickel (II) ion]
[1]
  Rate constant k: k = 3.3 × 10^7 L mol^−1 s^−1

## O=S(=O)(O)c1cc(O)c(O)c(S(=O)(=O)O)c1 [Tiron]
catalase; [6]
  Enzyme activity remaining after gamma-irradiation: 17.9%
Glucose oxidase; Table 9, superoxide scavengers
  Enzyme activity remaining after gamma-irradiation: 27.5%
Human growth hormone; [7]
  Structural integrity remaining after gamma-irradiation (HPLC): 55.7%
Sandostatin; [8]
  Enzyme activity remaining after gamma-irradiation: 89.7%
